For 18 molecules, IC50, EC50 and CC50 results are on record in patent US20220363686A1 (AiCuris GmbH & Co. KG, priority 2018, published 2022).

As a reminder, the CC50 is the concentration giving 50% cytotoxicity. Lower therefore signals greater toxicity to the cells.

Series [1] has as its target HBV core protein (C-terminal truncated core protein containing 149 amino acids of the N-terminal assembly domain) (UniProt P03146). Briefly: Biochemical capsid assembly assay (fluorescence quenching). On the set-up: rows headed: Assembly Activity; other: BODIPY-FL labelled core protein, assembly started with NaCl, read after 6 min. Particulars: read-out: Assembly Activity; BODIPY-FL labelled core protein, assembly started with NaCl, read after 6 min. An outline of the steps: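 N-terminal assembly domain (residues 1–149) plus C-terminal Cys150, E. coli-expressed, BODIPY-FL-maleimide labelled, used at 1.0–2.0 μM in 50 mM HEPES pH 7.5 with 0.5% DMSO. Assembly started with NaCl ([…]); fluorescence quenching (ex 477/em 525 nm) read after 6 min. 8-point compound series; EC50 by non-linear regression.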

The next series relates to HBV. Briefly: Determination of HBV DNA from the supernatants of HepAD38 cells (anti-HBV activity). Type of series: cell-based, hepatitis B virus. Conditions: Hepatitis B virus, HePAD38, 144 h, HBV DNA in HepAD38 supernatant, day 6, qPCR; read-out: Cell Activity. An outline of the steps:
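HepAD38 cells (60,000/well) seeded in tetracycline-free medium to induce HBV, treated with half-log serial compound dilutions for 6 days at 37 °C. HBV DNA purified from filtered supernatant and quantified by real-time PCR against HBV plasmid standards; EC50 from relative copy numbers by non-linear regression.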
In general terms: Quantitative PCR measures a nucleic acid by following its amplification.

The nature of series [2]: Cell viability assay (AlamarBlue). Particulars: human, HepAD38 cells.

Each structure is given as a SMILES string. Bounds are passed on as bounds.

Sequence of HBV core protein (C-terminal truncated core protein containing 149 amino acids of the N-terminal assembly domain) (P03146 whole entry, the tested form may be a part): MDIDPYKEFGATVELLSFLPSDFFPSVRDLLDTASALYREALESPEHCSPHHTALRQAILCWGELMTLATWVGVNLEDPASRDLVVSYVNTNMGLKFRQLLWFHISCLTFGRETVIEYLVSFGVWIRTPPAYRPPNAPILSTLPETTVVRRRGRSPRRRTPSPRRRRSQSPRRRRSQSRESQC

Turning to `O=C(NC1(CCOC(F)F)CCC1)c1cnn2c1CN(C(=O)c1cc3ccccc3[nH]1)CC2` [Example 123, N-{1-[2-(difluoromethoxy)ethyl]cyclobutyl}-5-(1H-indole-2-carbonyl)-4H,5H,6H,7H-pyrazolo[1,5-a]pyrazine-3-carboxamide], in series [1], the IC50 was below 5 µM. Moreover, the EC50 in the series with HBV was below 1 µM. In addition, the CC50 at 6 days in series [2] is above 10 µM.
As for `O=C(NC1(CCOC(F)F)CCCC1)c1cnn2c1CN(C(=O)c1cc3ccccc3[nH]1)CC2` [Example 124, N-{1-[2-(difluoromethoxy)ethyl]cyclopentyl}-5-(1H-indole-2-carbonyl)-4H,5H,6H,7H-pyrazolo[1,5-a]pyrazine-3-carboxamide], the IC50 in series [1] is below 5 µM. Besides, the EC50 in the series on HBV is below 1 µM. This molecule had a half-maximal cytotoxic concentration (CC50) at 6 days in series [2] above 10 µM.
With `O=C(NC1(CCOC(F)F)CCOCC1)c1cnn2c1CN(C(=O)c1cc3ccccc3[nH]1)CC2` [Example 125, N-{4-[2-(difluoromethoxy)ethyl]oxan-4-yl}-5-(1H-indole-2-carbonyl)-4H,5H,6H,7H-pyrazolo[1,5-a]pyrazine-3-carboxamide], the IC50 in series [1] is below 5 µM. Further, the EC50 with HBV is below 1 µM. Further, the CC50 at 6 days in series [2] is above 10 µM.
Consider `CN(C(=O)c1cnn2c1CN(C(=O)c1cc3ccccc3[nH]1)CC2)C1(CCOC(F)F)CCC1` [Example 126, N-{1-[2-(difluoromethoxy)ethyl]cyclobutyl}-5-(1H-indole-2-carbonyl)-N-methyl-4H,5H,6H,7H-pyrazolo[1,5-a]pyrazine-3-carboxamide], for which the IC50 in series [1] is below 5 µM. Also, in the series on HBV, the EC50 was in the range of 1 to 10 µM. The molecule also gave a CC50 at 6 days in series [2] above 10 µM.
With `CN(C(=O)c1cnn2c1CN(C(=O)c1cc3ccccc3[nH]1)CC2)C1(CCOC(F)F)CCCC1` [Example 127, N-{1-[2-(difluoromethoxy)ethyl]cyclopentyl}-5-(1H-indole-2-carbonyl)-N-methyl-4H,5H,6H,7H-pyrazolo[1,5-a]pyrazine-3-carboxamide], in series [1], the IC50 is below 5 µM. Besides, in the series on HBV, the EC50 was 1 to 10 µM. This molecule also returned a CC50 at 6 days in series [2] above 10 µM.
As to `CN(C(=O)c1cnn2c1CN(C(=O)c1cc3ccccc3[nH]1)CC2)C1(CCOC(F)F)CCOCC1` [Example 128], the IC50 in series [1] was below 5 µM. In the series on HBV, the EC50 lay within 1 to 10 µM. The 50% cytotoxic concentration (CC50) at 6 days in series [2] was above 10 µM.
With `CN(CCO)C(=O)c1cnn2c1CN(C(=O)c1cc3c(F)cc(F)cc3[nH]1)CC2` [Example 129, 5-(4,6-difluoro-1H-indole-2-carbonyl)-N-(2-hydroxyethyl)-N-methyl-4H,5H,6H,7H-pyrazolo[1,5-a]pyrazine-3-carboxamide], the IC50 in series [1] was below 5 µM. Besides, the EC50 with HBV was below 1 µM. This molecule also came in with a CC50 at 6 days in series [2] above 10 µM.
As to `CN(C(=O)c1cnn2c1CN(C(=O)c1cc3ccccc3[nH]1)CC2)C1CCC1` [Example 133, N-cyclobutyl-5-(1H-indole-2-carbonyl)-N-methyl-4H,5H,6H,7H-pyrazolo[1,5-a]pyrazine-3-carboxamide], the IC50 in series [1] is below 5 µM. Moreover, the EC50 in the series with HBV is 1 to 10 µM. This molecule also yielded a CC50 at 6 days in series [2] above 10 µM.
As for `O=C(NC1COC1)c1cnn2c1CN(C(=O)c1cc3ccccc3[nH]1)CC2` [Example 134, 5-(1H-indole-2-carbonyl)-N-(oxetan-3-yl)-4H,5H,6H,7H-pyrazolo[1,5-a]pyrazine-3-carboxamide], the IC50 in series [1] was below 5 µM. In the series with HBV, the EC50 lay in the range of 1 to 10 µM. In addition, the CC50 at 6 days in series [2] is above 10 µM.
For `CN(C(=O)c1cnn2c1CN(C(=O)c1cc3ccccc3[nH]1)CC2)C1COC1` [Example 135, 5-(1H-indole-2-carbonyl)-N-methyl-N-(oxetan-3-yl)-4H,5H,6H,7H-pyrazolo[1,5-a]pyrazine-3-carboxamide], the IC50 in series [1] was below 5 µM. Also, the EC50 with HBV was below 1 µM. Besides, the CC50 at 6 days in series [2] is above 10 µM.
`CN(C(=O)c1cnn2c1CN(C(=O)c1cc3ccccc3[nH]1)CC2)C1(C)COC1` [Example 136, 5-(1H-indole-2-carbonyl)-N-methyl-N-(3-methyloxetan-3-yl)-4H,5H,6H,7H-pyrazolo[1,5-a]pyrazine-3-carboxamide]: in series [1], the IC50 is below 5 µM. The EC50 in the series with HBV was 1 to 10 µM. This molecule also gave a CC50 at 6 days in series [2] above 10 µM.
Take `CN(CC1(O)CCC1)C(=O)c1cnn2c1CN(C(=O)c1cc3ccccc3[nH]1)CC2` [Example 137, N-[(1-hydroxycyclobutyl)methyl]-5-(1H-indole-2-carbonyl)-N-methyl-4H,5H,6H,7H-pyrazolo[1,5-a]pyrazine-3-carboxamide]: the IC50 in series [1] was below 5 µM. In the series with HBV, the EC50 is below 1 µM. The CC50 at 6 days in series [2] was above 10 µM.
In the case of `CN(C(=O)c1cnn2c1CN(C(=O)c1cc3ccccc3[nH]1)CC2)C1(C2OCCO2)CC1` [Example 138, N-[1-(1,3-dioxolan-2-yl)cyclopropyl]-5-(1H-indole-2-carbonyl)-N-methyl-4H,5H,6H,7H-pyrazolo[1,5-a]pyrazine-3-carboxamide], the IC50 in series [1] was below 5 µM. Moreover, in the series with HBV, the EC50 is below 1 µM. Besides, the CC50 at 6 days in series [2] is above 10 µM.
As to `O=C(NC1(COC(F)F)CC1)c1cnn2c1CN(C(=O)c1cc3cc(F)c(F)cc3[nH]1)CC2` [Example 139, 5-(5,6-difluoro-1H-indole-2-carbonyl)-N-{1-[(difluoromethoxy)methyl]cyclopropyl}-4H,5H,6H,7H-pyrazolo[1,5-a]pyrazine-3-carboxamide], the IC50 in series [1] was below 5 µM. In addition, in the series on HBV, the EC50 is below 1 µM. Further, the CC50 at 6 days in series [2] was above 10 µM.
Taken in the same sequence, the figures for `CN(C(=O)c1cnn2c1CN(C(=O)c1cc3ccccc3[nH]1)CC2)C1([C@H]2OC[C@H](N)CO2)CC1` [Example 141, 5-(1H-indole-2-carbonyl)-N-methyl-N-{1-[(2r,5r)-5-amino-1,3-dioxan-2-yl]cyclopropyl}-4H,5H,6H,7H-pyrazolo[1,5-a]pyrazine-3-carboxamide] were below 5 µM, below 1 µM and above 10 µM.
As for `CC1Cn2ncc(C(=O)N[C@H](C)C(F)(F)F)c2CN1C(=O)c1cc2ccccc2[nH]1` (stereo partly drawn) [Example 142, 5-(1H-indole-2-carbonyl)-6-methyl-N-[(2R)-1,1,1-trifluoropropan-2-yl]-4H,5H,6H,7H-pyrazolo[1,5-a]pyrazine-3-carboxamide], the IC50 in series [1] is below 5 µM. Moreover, the EC50 in the series with HBV was below 1 µM. Moreover, the CC50 at 6 days in series [2] was above 10 µM.
Take `CC1Cn2ncc(C(=O)N[C@H](C)C(F)(F)F)c2CN1C(=O)c1cc2c(F)c(F)ccc2[nH]1` (stereo partly drawn) [Example 143, 5-(4,5-difluoro-1H-indole-2-carbonyl)-6-methyl-N-[(2R)-1,1,1-trifluoropropan-2-yl]-4H,5H,6H,7H-pyrazolo[1,5-a]pyrazine-3-carboxamide]: the IC50 in series [1] was below 5 µM. Also, the EC50 in the series with HBV is below 1 µM. In series [2], this molecule showed a CC50 at 6 days above 10 µM.
The like results for `Cc1c(F)ccc2[nH]c(C(=O)N3Cc4c(C(=O)N[C@H](C)C(F)(F)F)cnn4CC3C)cc12` (stereo partly drawn) [Example 144, 5-(5-fluoro-4-methyl-1H-indole-2-carbonyl)-6-methyl-N-[(2R)-1,1,1-trifluoropropan-2-yl]-4H,5H,6H,7H-pyrazolo[1,5-a]pyrazine-3-carboxamide] were, in that order, below 5 µM, below 1 µM and above 10 µM.
